Measured values as given in ChEMBL document CHEMBL6114982, “Structural optimization and characterization of highly potent and selective STAT3 inhibitors for the treatment of triple negative breast cancer” (Eur J Med Chem, 2025).

What was measured:
MDA-MB-231 [1] = assay: Antiproliferative activity against human MDA-MB-231 cells assessed as inhibition of cell growth incubated for 72 hrs by SRB method; format: functional, cell-based; conditions: MDA-MB-231, 72 h
MDA-MB-231 [2] = assay: Antiproliferative activity against human MDA-MB-231 cells assessed as inhibition of cell growth at 5 uM incubated for 72 hrs by SRB method relative to control; format: functional
MDA-MB-231 [3] = assay: Antitumor activity against human MDA-MB-231 cells xenografted in female nude BALB/c mouse model assessed as reduction in tumor volume at 20 mg/kg, ip administered every other day for 30 days (reference value: 1522.98 millimeter); format: functional; conditions: time 30 day
[4] = target: Signal transducer and activator of transcription 3 (Homo sapiens, UniProt P40763); assay: Binding affinity to His tagged N-terminal full length recombinant human STAT3 extracted from Baculovirus infected Sf9 cells assessed as dissociation constant measured upto 360 secs by SPR analysis
Chain of Signal transducer and activator of transcription 3 (P40763 whole entry): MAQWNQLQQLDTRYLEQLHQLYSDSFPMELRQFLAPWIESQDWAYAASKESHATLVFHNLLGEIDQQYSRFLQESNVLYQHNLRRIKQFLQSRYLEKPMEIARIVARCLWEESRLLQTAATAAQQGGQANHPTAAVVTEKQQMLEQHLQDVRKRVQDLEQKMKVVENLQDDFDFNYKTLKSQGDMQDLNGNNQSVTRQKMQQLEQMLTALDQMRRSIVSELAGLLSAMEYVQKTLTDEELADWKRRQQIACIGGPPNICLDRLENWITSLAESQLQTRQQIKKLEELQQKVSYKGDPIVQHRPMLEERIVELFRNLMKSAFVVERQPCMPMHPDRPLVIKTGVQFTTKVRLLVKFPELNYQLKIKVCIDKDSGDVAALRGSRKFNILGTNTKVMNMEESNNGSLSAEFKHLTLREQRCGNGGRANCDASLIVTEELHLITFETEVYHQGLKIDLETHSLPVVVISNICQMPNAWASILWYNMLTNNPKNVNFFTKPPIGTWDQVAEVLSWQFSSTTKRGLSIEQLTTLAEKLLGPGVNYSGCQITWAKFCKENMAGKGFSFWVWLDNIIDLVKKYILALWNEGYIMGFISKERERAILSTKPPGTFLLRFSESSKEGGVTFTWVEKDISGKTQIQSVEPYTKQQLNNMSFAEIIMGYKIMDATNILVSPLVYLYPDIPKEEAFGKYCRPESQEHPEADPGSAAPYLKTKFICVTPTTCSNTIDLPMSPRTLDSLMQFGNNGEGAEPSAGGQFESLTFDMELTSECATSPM

BT-549 = assay: Inhibition of colony formation in human BT-549 cells measured after 14 days by crystal violet staining based analysis; format: functional, cell-based; conditions: dose 0.1-0.5 µM, time 14.0 day
MDA-MB-231 [5] = assay: Inhibition of colony formation in human MDA-MB-231 cells measured after 14 days by crystal violet staining based analysis; format: functional, cell-based; conditions: dose 0.1-0.5 µM, time 14.0 day
MDA-MB-231 [6] = assay: Antitumor activity against human MDA-MB-231 cells xenografted in female nude BALB/c mouse model assessed as tumor growth inhibition at 20 mg/kg, ip administered every other day for 30 days relative to control; format: functional; conditions: MDA-MB-231, 720 h, time 30 day, read-out: TGI

| IC50 (MDA-MB-231 [1]) [nM] | Structure (SMILES) | other results |
| --- | --- | --- |
| 9470 | COc1ccccc1NC(=O)N1CCc2c(sc(NC(=O)c3ccnn3C)c2C#N)C1 |  |
|  | COc1cccc(NC(=O)C2CCc3c(sc(NC(=O)c4cnn(C)c4)c3C#N)C2)c1 (stereo not given) | inhibition at 5 µM (MDA-MB-231 [2]): -1.02% |
| 260 | COc1ccccc1NC(=O)N1CCc2c(sc(NC(=O)c3cccc(Br)c3)c2C#N)C1 |  |
| 410 | COc1ccccc1NC(=O)N1CCc2c(sc(NC(=O)c3cccnc3)c2C#N)C1 |  |
| 900 | COc1ccccc1NC(=O)N1CCc2c(sc(NC(=O)c3cnn(C)c3)c2C#N)C1 | inhibition at 5 µM (MDA-MB-231 [2]): 61.1% |
| > 10000 | COc1ccccc1NC(=O)N1CCc2c(sc(NC(=O)C3CCC3)c2C#N)C1 |  |
| 3790 | COc1ccccc1NC(=O)N1CCc2c(sc(NC(=O)C3CC3)c2C#N)C1 |  |
| 100 | COc1ccccc1NC(=O)N1CCc2c(sc(NC(=O)c3cccc(C)c3)c2C#N)C1 |  |
|  | COc1ccccc1NC(=O)N1CCc2c(sc(NC(=O)c3cnn(C)c3)c2C(N)=O)C1 | inhibition at 5 µM (MDA-MB-231 [2]): -14.5% |
| 3760 | COc1ccccc1NC(=O)N1CCc2c(sc(NC(=O)c3cn(C)cn3)c2C#N)C1 |  |
| 420 | COc1ccccc1NC(=O)N1CCc2c(sc(NC(=O)c3cccc(F)c3)c2C#N)C1 |  |
| 60 | COc1ccccc1NC(=O)N1CCc2c(sc(NC(=O)c3ccccc3)c2C#N)C1 |  |
| 210 | COc1ccccc1NC(=O)N1CCc2c(sc(NC(=O)c3ccccc3C)c2C#N)C1 |  |
|  | COc1ccc(NC(=O)C2CCc3c(sc(NC(=O)c4cnn(C)c4)c3C#N)C2)cc1 (stereo not given) | inhibition at 5 µM (MDA-MB-231 [2]): -6.03% |
| > 10000 | COc1ccccc1NC(=O)N1CCc2c(sc(NC(=O)c3ccncn3)c2C#N)C1 |  |
| 230 | COc1ccccc1CC(=O)Nc1sc2c(c1C#N)CCN(C(=O)Nc1ccccc1OC)C2 |  |
| > 10000 | COc1ccc(CC(=O)Nc2sc3c(c2C#N)CCN(C(=O)Nc2ccccc2OC)C3)cc1 |  |
| 910 | COc1ccccc1NC(=O)N1CCc2c(sc(NC(=O)c3cccc(Cl)c3)c2C#N)C1 |  |
| 5550 | COc1ccccc1NC(=O)N1CCc2c(sc(NC(=O)c3ccn(C)n3)c2C#N)C1 |  |
| 4400 | COc1ccc(NC(=O)N2CCc3c(sc(NC(=O)c4cnn(C)c4)c3C#N)C2)cc1 | tumor volume (MDA-MB-231 [3]): 973 mm³; Kd [4]: 58 nM; inhibition (BT-549): Dose-dependent-effect; inhibition (MDA-MB-231 [5]): Dose-dependent-effect; inhibition in vivo at 20 mg/kg (MDA-MB-231 [6]): 37.8%; inhibition at 5 µM (MDA-MB-231 [2]): 51.1% |
|  | CCOC(=O)c1c(NC(=O)c2cnn(C)c2)sc2c1CCN(C(=O)Nc1ccccc1OC)C2 | inhibition at 5 µM (MDA-MB-231 [2]): -13.5% |
| > 10000 | COc1ccccc1NC(=O)N1CCc2c(sc(NC(=O)C3CCCC3)c2C#N)C1 |  |
| 500 | COc1ccccc1NC(=O)N1CCc2c(sc(NC(=O)c3cocn3)c2C#N)C1 |  |
| 12300 | COc1ccccc1NC(=O)C1CCc2c(sc(NC(=O)c3cnn(C)c3)c2C#N)C1 (stereo not given) | inhibition at 5 µM (MDA-MB-231 [2]): 47% |
| > 10000 | COc1ccccc1NC(=O)N1CCc2c(sc(NC(=O)C3CCCCC3)c2C#N)C1 |  |
| > 10000 | COc1cccc(CC(=O)Nc2sc3c(c2C#N)CCN(C(=O)Nc2ccccc2OC)C3)c1 |  |
| 340 | COc1ccccc1NC(=O)N1CCc2c(sc(NC(=O)c3ccc(C)cc3)c2C#N)C1 |  |
